Series [1] has as its system procollagen C proteinase enhancer protein, 1,25-D3-MARRS, nascent polypeptide associated complex alpha chain. The series can be described thus: 2-D SDS-PAGE and mass spectrometry of cell layer EDTA extracts, fragmentation of mineralization related proteins. The format is cell-based, Rat. As to conditions: +BGP versus +BGP with 0.04 mM AEBSF, serum-depleted. As to the method: Two Step Extraction of Cell Layer—2-Step Method. During the final 24 hour mineralization period, cells were grown in BSA-free, serum-free media conditions to reduce the amount of BSA in fractions used for 2-dimensional gel electrophoresis. Media was removed from each flask, heated at 95° C. for 5 minutes, dialyzed against 5% acetic acid, and lyophilized to dryness. Cell layers were first extracted without mixing for 2 h at 4° C. in 0.05 M Tris-acetate buffer (pH 7.5) containing 0.15 M NaCl, 0.05 M EDTA and 0.02% sodium azide; extracts were then inactivated at 95° C. for 5 minutes, dialyzed against 5% HAc, and lyophilized to dryness. […]
Mass Spectrometric Analyses. Protein bands were detected by staining with Coomassie blue G or with Sypro Ruby dye according to the manufacturer's instructions (Bio-Rad, Inc.). […] The data were analyzed using Mascot (Matrix Science, LTD), to find protein matches in the MSDB—20050227.fasta database. […]
AEBSF is a general serine protease inhibitor and the inhibition of mineralization by AEBSF could very well be due to the blockage of cleavage events of other necessary proteins. […] There were no major differences detected between the two growth conditions for either the urea extract or the media fraction. However, the differences detected between the two EDTA extracts were visually dramatic (FIG. 9). […]

In series [2] the test system is primary mouse calvarial cultures. The series can be described thus: MTT assay in primary mouse calvarial cultures. In kind it is cell-based. Conditions: 0.01 to 0.1 mM, scored on day 12. As to the method: Primary mouse calvaria were isolated from 3-5 day old mice and digested with trypsin/collagenase. Three sequential enzymatic digestions were pooled and spun down at 1500 rpm and the cells were resuspended in alpha-MEM containing 10% fetal bovine serum, 2 mM L-glutamine, 100 u/ml penicillin and 30 ug/ml gentamicin (Alpha-Growth Medium). Cells were plated directly at a density of 2-3×10^6 cells per T-75 cm2 flask and allowed to reach confluency (3-4 days). Confluent cultures were passaged by trypsinization and re-plating in 12- or 24-well culture dishes at a density of 20,000 cells per cm2. Cultures were subsequently re-fed at three-day intervals with Alpha-Growth Medium supplemented with 50 ug/ml ascorbic acid and 5 mM beta-glycerol phosphate. Beta-glycerol phosphate was omitted from some wells, which served as an unmineralized control. […] A second set was fixed on day 12 with 70% ethanol and processed for quantitative Alizarin red S staining as described for UMR cultures.
MTT Assays Culture wells were washed with Eagle's MEM supplemented with Earle's salts and then incubated with a solution of 0.5 mg/ml MTT (3-(4,5-dimethylthiazol-2-yl)-2,5-diphenyl-2Htetrazolium bromide) in Eagle's MEM for 1-2 h at 37° C. Excess MTT solution was removed, the cells disrupted by mixing briefly with dimethylsulfoxide, and free, reduced dye was read at 490 or 540 nm in a spectrophotometer.
(In general: Tetrazolium dyes change colour on reduction, which living cells bring about.)

Series [3] relates to UMR-106 cells. The series can be described thus: MTT cell viability assay in UMR 106-01 cultures. The format is cell-based, Rat. As for the experimental part:
Cell Culture. UMR 106-01 cells were maintained and cultured at 37° C. and 5% carbon dioxide. Cells were seeded at a density of 1.0×10^5 cells/cm^2 in Growth Medium (Eagle's MEM supplemented with Earle's salts, 1% non-essential amino acids, 10 mM, HEPES, pH 7.2, and 10% fetal bovine serum). After 24 hours (h), the medium was exchanged with Growth Medium containing 0.5% BSA. Sixty-four hours after plating, the culture medium was exchanged with Mineralization Media (Growth Medium containing either 0.1% BSA or 10% fetal bovine serum and 7 mM β-glycerol phosphate). Cultures were then incubated for an additional 24 hours, at the end of which (88 h), the cells were fixed in 70% ethanol and either subjected to MTT assay or extracted for protein. […] Alternatively, AEBSF was added at 44 h after plating; inhibitor was then removed and exchanged for Mineralization Media at 64 h and the amount of mineralization analyzed at 88 h.
MTT Assays Culture wells were washed with Eagle's MEM supplemented with Earle's salts and then incubated with a solution of 0.5 mg/ml MTT (3-(4,5-dimethylthiazol-2-yl)-2,5-diphenyl-2Htetrazolium bromide) in Eagle's MEM for 1-2 h at 37° C. Excess MTT solution was removed, the cells disrupted by mixing briefly with dimethylsulfoxide, and free, reduced dye was read at 490 or 540 nm in a spectrophotometer. […]

The subject of series [4] is UMR-106 cells. The series can be described thus: Mineral deposition (hydroxyapatite) within BMF in UMR 106-01 cultures, Alizarin red S quantitation. The format is cell-based, Rat. As to the method: Cell Culture. UMR 106-01 cells were maintained and cultured at 37° C. and 5% carbon dioxide. Cells were seeded at a density of 1.0×10^5 cells/cm^2 in Growth Medium (Eagle's MEM supplemented with Earle's salts, 1% non-essential amino acids, 10 mM, HEPES, pH 7.2, and 10% fetal bovine serum). After 24 hours (h), the medium was exchanged with Growth Medium containing 0.5% BSA. Sixty-four hours after plating, the culture medium was exchanged with Mineralization Media (Growth Medium containing either 0.1% BSA or 10% fetal bovine serum and 7 mM β-glycerol phosphate). Cultures were then incubated for an additional 24 hours, at the end of which (88 h), the cells were fixed in 70% ethanol and either subjected to MTT assay or extracted for protein. In some experiments, protease inhibitors, including serine protease inhibitor AEBSF (4-(2-aminoethyl)-benzenesulfonylfluoride HCl), were added to cultures at 64 h after plating in Mineralization Media. Alternatively, AEBSF was added at 44 h after plating; inhibitor was then removed and exchanged for Mineralization Media at 64 h and the amount of mineralization analyzed at 88 h.
Quantitation of Mineralization. […] Bound dye was quantitated by extraction for 2 h at 4° C. in cold 10 mM HCl in 70% ethanol. The initial extract was collected and combined with a second extract and then read at 520 nm in a spectrophotometer. A standard curve for Alizarin red S dye was constructed for each analysis and the amount of bound dye/culture well was determined. […] Combined extracts were read at 520 nm in a spectrophotometer and the amount of bound dye/culture well was determined based on a standard curve.
To investigate the nature of the protease activity responsible for BAG-75/BSP cleavage and the relationship of cleavage with mineralization, a variety of protease inhibitors (Table 1) were tested in the UMR model. Individual inhibitors were added to confluent cultures at 64 hours after plating and the amount of hydroxyapatite deposited within BMF was quantitated 24 hours later. […]

The subject of the next series is BAG-75 and BSP. The series can be described thus: Uptake and proteolytic cleavage of BAG-75 and BSP in mineralizing UMR cultures (SDS-PAGE, staining, immunoblotting). In kind it is cell-based, Rat. As for the experimental part: Two Step Extraction of Cell Layer—2-Step Method. During the final 24 hour mineralization period, cells were grown in BSA-free, serum-free media conditions to reduce the amount of BSA in fractions used for 2-dimensional gel electrophoresis. Media was removed from each flask, heated at 95° C. for 5 minutes, dialyzed against 5% acetic acid, and lyophilized to dryness. Cell layers were first extracted without mixing for 2 h at 4° C. in 0.05 M Tris-acetate buffer (pH 7.5) containing 0.15 M NaCl, 0.05 M EDTA and 0.02% sodium azide; extracts were then inactivated at 95° C. for 5 minutes, dialyzed against 5% HAc, and lyophilized to dryness. The residual cell layer was next dislodged by scrapping and then extracted overnight at 4° C. by slow mixing with 0.1 M Trisacetate buffer (pH 7.5) containing 8 M urea, 2% (w/v) CHAPS and 0.02% sodium azide. Urea extracts were then homogenized and clarified by ultracentrifugation at 30,000 rpm for 1 h at 4° C. in an SW 50.1 rotor prior to use in 2-dimensional gel electrophoresis.
Western Blotting—Chemiluminescence Detection. […]
The effect of AEBSF on the protein distribution within mineralizing cultures was analyzed using cells grown until 64 hours, at which time they were fed with one of four different media conditions. […]

Here are results for one molecule from patent US20080299588A1, “Methods For Measuring Bone Formation” (The Curators of the University of Missouri A public …, priority 2007, published 2008).

Entries after “also recorded” stand apart in the source; their conditions may differ.

On to `Cl.NCCc1ccc(S(=O)(=O)F)cc1` [AEBSF, 4-(2-aminoethyl)-benzenesulfonylfluoride HCl], for which the “cleavage of three additional proteins in EDTA extract” value in series [1] was “inhibited the cleavage”. Besides, the “change in viable cell number (MTT)” value in series [2] was “little change in viable cell number”. Moreover, in the series with UMR-106 cells [3] (rat, UMR 106-01 cells, pH 7.2), the “concentration below which no loss of cell viability was noted (MTT)” value is listed as “below 1 mM”. The “concentration above which toxic (MTT)” value with UMR-106 cells [3] (serum-sufficient or serum-depleted conditions) is “above 0.4 mM”. The “concentration capable of completely blocking mineral nucleation (as low as)” value with UMR-106 cells [4] (UMR cultures, 64-88 h after plating) worked out at 0.04 mM. For the same molecule, in the series with UMR-106 cells [4] (UMR system, added at 64 hours after plating, optimal recommended dosage), the “effect on mineral nucleation / mineralization in BMF” value was “blocked mineral nucleation”. For the same molecule, the “difference in effectiveness, mineralization period (64-88 h) versus proliferation/differentiation period (44-64 h after plating)” value in the series on UMR-106 cells [4] (assuming baseline mineral level of 150-170 nmoles/well, FIG. 4A) was 10 fold. Moreover, in the series on BAG-75 and BSP (0.1 mM AEBSF with 7 mM β-glycerol phosphate, 64-88 hours, HCl), the “uptake of BAG-75 and BSP (75 kDa glycophosphoprotein band) from media by the cell layer” value is given as “blocked; also recorded: blocks uptake”. Also, in the series with BAG-75 and BSP (UMR cultures with β-glycerol phosphate, two stage extraction, immunoblot), the “proteolytic cleavage of BAG-75 and BSP to 45-50 kDa fragments” value was “blocks uptake and cleavage”.
